# Reference: patent US11608483B2, “Inverted culture plate system for cellular co-culture” (University of Maryland, Baltimore, priority 2016, dated 2023)
# Like-named read-outs stand apart in the source and are kept apart here.
# How the values were obtained:
# [1] = tested on: CYP2B6 and CYP3A4 expression; experiment: CYP2B6 and CYP3A4 mRNA (real-time RT-PCR) and protein (western blot) induction in human primary hepatocytes
# Procedure: (§1) The age and sex of each liver donor used are detailed in Table 1.
# (§2) Total RNA was isolated from cells using TRIzol reagent (ThermoFisher, Rockford, Ill.) and reverse transcribed using a High Capacity cDNA archive kit (Applied
# (§3) Biosystems, Foster, Calif.) according to the manufacturer's instructions. Real-time PCR assay was performed using SYBR Green PCR Mastermix (Qiagen, Germantown, Md.) on an ABI StepOnePlus real-timePCR system (Applied Biosystems). […] Expression values were quantified using the following equation: fold over control=2^ΔΔCt method, where ΔCt represents the differences in cycle threshold numbers between the target gene and glyceraldehyde-3-phosphate dehydrogenase, and ΔΔCt represents the relative change in these differences between control and treatment groups.
# (§4) Subsequently, membranes were incubated with primary antibodies against CYP2B6 (1:200; Santa Cruz Biotechnology, Santa Cruz, Calif.), CYP3A4 (1:5000; Sigma-Aldrich), or β-actin (1:50,000, Sigma-Aldrich) at 4° C. overnight. Blots were developed with West Pico chemiluminescent substrates (ThermoFisher) after incubation with horse-radish peroxidase secondary antibodies.
# hCAR1+A = molecular target: T1, hCAR1+A (Homo sapiens, UniProt Q14994, INS274A); experiment: CAR1+A/CYP2B6-2.2k reporter assay in transfected HepG2 cells; type: cell-based; conditions: HepG2 cells without HPHs, 24 h
# T1 construct: expressed in transfected cells; host or cells: HepG2
# T1 sequence (Q14994 with tags, fused parts or gaps isoform Q14994-2 INS270A): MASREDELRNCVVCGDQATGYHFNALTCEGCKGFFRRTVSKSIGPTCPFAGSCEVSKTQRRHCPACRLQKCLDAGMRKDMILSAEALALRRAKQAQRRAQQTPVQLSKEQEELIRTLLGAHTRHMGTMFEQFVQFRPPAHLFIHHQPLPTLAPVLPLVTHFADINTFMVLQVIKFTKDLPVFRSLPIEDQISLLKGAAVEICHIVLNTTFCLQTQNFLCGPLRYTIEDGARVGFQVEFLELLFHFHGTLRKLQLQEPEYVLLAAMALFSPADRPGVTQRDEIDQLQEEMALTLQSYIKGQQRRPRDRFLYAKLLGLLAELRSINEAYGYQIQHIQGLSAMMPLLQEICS
# T1 sequence (P19793 1-462 partner): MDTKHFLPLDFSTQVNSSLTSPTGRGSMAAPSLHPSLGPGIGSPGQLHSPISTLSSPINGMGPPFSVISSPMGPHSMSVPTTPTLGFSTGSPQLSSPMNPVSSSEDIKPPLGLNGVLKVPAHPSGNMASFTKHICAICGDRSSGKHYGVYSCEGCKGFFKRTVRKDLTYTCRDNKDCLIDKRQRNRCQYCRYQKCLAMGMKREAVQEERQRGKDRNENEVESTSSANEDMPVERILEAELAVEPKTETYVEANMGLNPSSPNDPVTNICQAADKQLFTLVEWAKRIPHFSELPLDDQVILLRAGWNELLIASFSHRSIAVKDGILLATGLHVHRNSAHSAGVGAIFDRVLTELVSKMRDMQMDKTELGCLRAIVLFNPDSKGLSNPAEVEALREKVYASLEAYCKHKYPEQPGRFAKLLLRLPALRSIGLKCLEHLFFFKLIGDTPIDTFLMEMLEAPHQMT
# hCAR [2] = molecular target: T2, hCAR (Homo sapiens, UniProt Q14994); experiment: Nuclear translocation of EYFP-hCAR in HPHs; type: cell-based; design: expressed in transfected cells; conditions: HPHs donor 123; 1 mM PB, 10 μM others; 8 hours
# T2 sequence (Q14994 1-348 isoform Q14994-2): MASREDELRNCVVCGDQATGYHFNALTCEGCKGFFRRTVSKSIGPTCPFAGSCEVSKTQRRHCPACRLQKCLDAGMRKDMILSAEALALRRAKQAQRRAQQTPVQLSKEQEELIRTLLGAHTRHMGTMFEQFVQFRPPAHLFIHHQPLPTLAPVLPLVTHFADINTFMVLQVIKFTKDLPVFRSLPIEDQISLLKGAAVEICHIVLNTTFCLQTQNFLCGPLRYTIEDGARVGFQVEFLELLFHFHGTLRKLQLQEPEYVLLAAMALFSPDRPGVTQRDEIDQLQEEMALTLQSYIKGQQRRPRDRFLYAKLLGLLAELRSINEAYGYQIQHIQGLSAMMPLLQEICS
# Procedure: After treatment, cells were fixed with 4% paraformaldehyde, stained with 1 μg/ml 4′,6-diamidino-2-phenylindole (Sigma-Aldrich) for 30 minutes, and EYFP-hCAR localization in hepatocytes was visualized on a Nikon Eclipse TI fluorescent microscope (Nikon, Melville, N.Y.). Quantitative distribution of EYFP-hCAR was analyzed using General Analysis in the Nikon Elements AR High Content Analysis software package (version 4.50.00). Nuclear localization was defined and quantified as the percentage of total enhanced yellow fluorescent protein that overlaps with 4′,6-diamidino-2-phenylindole.
# hCAR [3] = molecular target: T2, hCAR; experiment: CYP2B6 luciferase reporter assay in HepG2-CAR-2B6 stable cells without HPHs; type: cell-based; design: expressed in transfected cells; conditions: 24 h; for hCAR activity (CYP2B6 reporter luciferase activity): HepG2-CAR-2B6 cells without HPHs
# [4] = tested on: human primary hepatocytes (HPHs); experiment: LC-MS/MS measurement of PK11195 metabolism in HPHs; type: in vitro ADME; conditions: for LC-MS/MS peak of metabolite in HPH culture medium: after 1 hour incubation of 10 μM PK11195 with HPHs, versus 0 hour
# Procedure: Media (450 μl ) were collected from each well at 0 and 1 hours and frozen immediately at −80° C. Samples were thawed on ice before adding 50 μl of medium to 450 μl of ice-cold methanol/H2O (8:1, v/v). After centrifugation at 16,000g for 30 minutes, 200 μl of supernatant was transferred to a separate tube and dried down before resuspension in 200 μl H2O/ACN (1:1, v/v) with 0.1% formic acid. Authentic standards were prepared to 1 μM in H2O/ACN (1:1, v/v) with 0.1% formic acid. LC-MS/MS analysis was performed on a TSQ Quantum Ultra Triple Stage Quadrupole Mass Spectrometer coupled to an Ultimate 3000 RS Liquid Chromatogram System (Thermo Scientific, Waltham, Mass.). The LC separation was performed on a Waters (Milford, Mass.) BEH C18 column (2.1×50 mm, 1.7 μm) operated at 30° C. Solvents A and B consisted of 0.1% formic acid in H2O and 0.1% formic acid in ACN, respectively. The gradient program was 0.0-0.5 minutes, 50% B; 0.5-2.0 minutes, gradient to 95% B; 2.0-3.5 minutes, 95% B; 3.5-4.0 minutes, gradient to 50% B; and 4.0-5.0 minutes, 50% B. The flow rate was 0.5 ml/min and injection volume was 5 μl. Tandem mass spectrometry was performed in the positive-ion mode and the electrospray ionization source parameters were as follows: spray voltage, 3000; capillary temperature, 325; sheath gas pressure, 40; auxiliary gas pressure, 15; capillary offset, 35; and tube lens offset, 80. […] Data collection and analysis were performed using Xcalibur V 2.1 (Thermo Scientific).
# HEK-293 cells [5] = conditions: HEK-293 cultured alone, concentration up to 1 mM, 24 hrs
# HEK-293 cells [6] = conditions: HPH/HEK-293 co-culture versus HEK-293 alone, 24 hrs
# [7] = Mordente A et al., 2009; cited from earlier work
# hCAR [8] = molecular target: T2, hCAR; conditions: 8 μM KET, PK11195 1 and 10 μM, HPH co-culture, 24 h
# [9] = tested on: CYP2B6 and CYP3A4 expression; experiment: CYP2B6 and CYP3A4 induction in PXR-KO HepaRG cells; conditions: differentiated PXR-KO HepaRG cells; 10 μM; 24 h mRNA, 72 h protein
# Procedure: as §1, §2, §3, §4
# hCAR/SRC-1 interaction = molecular target: T3, hCAR/SRC-1 interaction (Homo sapiens, UniProt Q14994); experiment: Mammalian two-hybrid assay in COS1 cells, CAR/SRC-1; type: cell-based; conditions: 24 h
# T3 construct: expressed in transfected cells; host or cells: COS1
# T3 sequence (Q14994 1-348 isoform Q14994-2): T2 sequence (Q14994 1-348 isoform Q14994-2)
# Procedure: (§5) COS1 cells seeded in 24-well plates were transfected with 110 ng of the reporter gene plasmid pG5luc, 80 ng of expression plasmids encoding the respective VP16AD/hCAR fusions, 40 ng of expression plasmids encoding GAL4-DBD/coregulatory fusions, and 20 ng of reference plasmid pRL-TK, each well using X-tremeGENE 9 DNA Transfection Reagent (Sigma-Aldrich). […] Luciferase activities were measured in cell lysates using the Dual Luciferase Kit (Promega). Data represent the mean±S.D. of three individual transfections.
# hCAR/GRIP1 interaction = molecular target: T4, hCAR/GRIP1 interaction (Homo sapiens, UniProt Q14994); experiment: Mammalian two-hybrid assay in COS1 cells, CAR/GRIP1; type: cell-based; conditions: 24 h
# T4 construct: expressed in transfected cells; host or cells: COS1
# T4 sequence (Q14994 1-348 isoform Q14994-2): T2 sequence (Q14994 1-348 isoform Q14994-2)
# Procedure: as §5
# [10] = tested on: CYP2B6 and CYP3A4 expression; experiment: CYP2B6 and CYP3A4 induction in wild-type HepaRG cells; type: cell-based; conditions: differentiated wild-type HepaRG cells; 10 μM PK11195; 24 h mRNA, 72 h protein
# Procedure: as §1, §2, §3, §4
smiles,measurement,setting,value
"Clc1ccc(-c2nc3sccn3c2C=NOCc2ccc(Cl)c(Cl)c2)cc1 [CITCO, 6-(4-Chlorophenyl)imidazo[2,1-b][1,3]thiazole-5-carbaldehyde-O-(3,4-dichlorobenzyl)oxime]",induction of CYP2B6 and CYP3A4 at mRNA and protein levels,"[1]; HPHs from liver donors 107 and 122, 1 mM PB, 1 μM CITCO, 10 μM RIF, 10 μM PK11195, 24 h mRNA, 72 h protein",robustly induced
"O=C(O)c1cc2ccccc2c(-c2ccccc2Cl)n1 [COOH-PK, 1-(2-Chlorophenyl)isoquinoline-3-carboxylic acid]",hCAR activation in the CAR1+A/CYP2B6-2.2k reporter assay,hCAR1+A,negligible CAR activation
same,nuclear translocation of hCAR (EYFP-hCAR),hCAR [2],negligible CAR nuclear accumulation
same,hCAR activity (CYP2B6 reporter luciferase activity),hCAR [3],no effect on CAR activity
same,LC-MS/MS peak of metabolite in HPH culture medium,[4],significantly increased in intensity
same,induction of CYP2B6 and CYP3A4 at mRNA and protein levels,"[1]; HPHs from liver donors 120 and 121, 0.1, 1 and 10 μM, 24 h mRNA, 72 h protein",negligible effects
"O=P1(N(CCCl)CCCl)NCCCO1 (stereo not shown) [CPA, cyclophosphamide]",cytotoxicity,HEK-293 cells [5],no cytotoxicity
same,metabolism-dependent cytotoxicity,HEK-293 cells [6],showed metabolism-dependence in the co-culture only
"COc1cccc2c1C(=O)c1c(O)c3c(c(O)c1C2=O)C[C@@](O)(C(=O)CO)C[C@@H]3O[C@H]1C[C@H](N)[C@H](O)[C@H](C)O1 [DOX, doxorubicin]",fraction eliminated from the body unchanged,[7],over 50%
"CC(=O)N1CCN(c2ccc(OCC3COC(Cn4ccnc4)(c4ccc(Cl)cc4Cl)O3)cc2)CC1 (stereo not shown) [KET, ketoconazole]",effect of KET co-treatment on conversion of PK11195 from CAR antagonist to CAR activator,hCAR [8],significantly inhibited the conversion of PK11195
same,effect of KET co-treatment on repression of CAR activity by PK11195,"hCAR [3]; 8 μM KET, HepG2-CAR-2B6 cells alone",not influenced
"CC[C@@H](C)NC(=O)c1cc2ccccc2c(-c2ccccc2Cl)n1 [ND-PK, (R)-N-Desmethyl PK11195]",induction of CYP2B6 and CYP3A4 mRNA and protein,[9],significantly induced
same,interaction between hCAR and SRC-1,"hCAR/SRC-1 interaction; 10 μM, COS1 cells",moderately enhanced
same,effect on PK11195 mediated repression of SRC-1/CAR interaction,hCAR/SRC-1 interaction; ND-PK + PK11195 co-treatment,markedly rescued
same,hCAR activation in the CAR1+A/CYP2B6-2.2k reporter assay,hCAR1+A,robustly activates hCAR to a level similar to the positive control
same,nuclear translocation of hCAR (EYFP-hCAR),hCAR [2],robustly increased nuclear translocation
same,hCAR activity (CYP2B6 reporter luciferase activity),hCAR [3],activated hCAR in a concentration-dependent manner
same,LC-MS/MS peak of metabolite in HPH culture medium,[4],significantly increased in intensity
same,interaction between hCAR and GRIP1,"hCAR/GRIP1 interaction; 10 μM, COS1 cells",moderately enhanced
same,effect on PK11195-repressed binding of GRIP1 to hCAR,hCAR/GRIP1 interaction; ND-PK + PK11195 co-treatment,only minimally affecting
"CCC1(c2ccccc2)C(=O)NC(=O)NC1=O [PB, Phenobarbital]",induction of CYP2B6 and CYP3A4 at mRNA and protein levels,[1]; hepatocytes,robustly induced
"CCC(C)N(C)C(=O)c1cc2ccccc2c(-c2ccccc2Cl)n1 (stereo not shown) [PK11195, 1-(2-chlorophenyl)-N-methyl-N-(1-methylpropyl)-3-isoquinolinecarboxamide]",induction of CYP2B6 and CYP3A4 mRNA and protein,[10],induced the expression of CYP2B6 and CYP3A4 mRNA and protein
same,induction of CYP2B6 and CYP3A4 mRNA and protein,[9],significantly induced
same,metabolism of PK11195 by HPHs,"[4]; 10 μM PK11195, media at 0 and 1 hour",metabolized by HPHs to COOH-PK and ND-PK
same,induction of CYP2B6 and CYP3A4 at mRNA and protein levels,[1],robustly induced
